According to patent US20240327829A1, “CONJUGATE OF SAPONIN, OLIGONUCLEOTIDE AND GALNAC” (priority 2020, published 2024):
Like-named read-outs stand apart in the source and are kept apart here. [BNA] = bridged nucleic acid (BNA) nucleotide, BNA type not stated for this oligo; [BNANC] = BNA^NC (2'-O,4'-aminoethylene bridged) nucleotide; {C6SH} = thiol C6 linker; d = 2'-deoxy (DNA)

Experiments:
[1] = Endosomal escape enhancing activity of saponin; conditions: compared with SO1861
[2] = test system: primary human hepatocytes; assay: Cell viability of primary human hepatocytes; assay type: cell-based; conditions: combined with 10 pM CD71-saporin
Procedure: Briefly, the MTS solution was diluted 20× in DMEM without phenol red (PAN-Biotech GmbH) supplemented with 10% FBS. The cells were washed once with 200 μL/PBS well, after which 100 μL diluted MTS solution was added/well. The plate was incubated for approximately 20-30 minutes at 37° C.

[3] = test system: apoB gene expression in Huh7 cells; assay: ApoB gene silencing (gene expression analysis); assay type: cell-based, human; conditions: for IC50: + fixed 4000 nM trivalent-GalNAc-L-SO1861 (DAR1)
Procedure: (§1) RNA from cells was isolated and analysed according to standard protocols (Biorad). qPCR primers that were used are indicated in Table A2.
(§2) RNA isolation and gene expression analysis from primary mouse and human hepatocytes RNA from cells was isolated using TRI Reagent® Solution (Thermo Scientific) according to the manufacturer's instruction. Conversion into cDNA was performed using iScript™ cDNA Synthesis Kit (BioRad) using standard protocols. ApoB expression levels and levels of specific hepatocyte housekeeping genes were determined using quantitative real-time PCR assays (qRT-PCR) using iTaq™ Universal SYBR® Green Supermix (BioRad) and the Light Cycler 480 (Roche Diagnostics, Rotkreuz, Switzerland) with specific DNA primers, listed in Table A4 (study A) and Table A7 (study B), respectively. Analysis was done by the […] to determine apoB expression relative to 2 hepatocyte-specific housekeeping control mRNAs. Each analysis reaction was performed in triplicate.

[4] = test system: apoB protein expression in Huh7 cells; assay: apoB protein expression in Huh7 hepatocyte cell line; assay type: cell-based, human
[5] = test system: apoB mRNA in primary human hepatocytes; assay: apoB mRNA expression analysis in primary human hepatocytes; assay type: cell-based; conditions: read-out: apoB RNA levels IC50
Procedure: as §1, §2

[6] = test system: apoB RNA in liver tissue; assay: ApoB expression analysis in liver tissue (qRT-PCR); assay type: in vivo, C57BL/6J mice; conditions: for apoB RNA levels in liver, reduction compared to vehicle: Study A
Procedure: (§3) • i. Dose administration and in-life phase. Per group, 8 C57BL/6J male mice for treatment groups (in Study A, 14 mice in vehicle control group), approximately 6-7 weeks at arrival and 8-9 weeks at dosing, were dosed. The compounds, formulated in PBS or PBS alone (vehicle) according to Table A5 and Table A6, were dosed at 5 ml/kg in the tail vain (intravenously, iv), with dose volumes corresponding to the individual bodyweights. Where applicable, trivalent (GalNAc)3-SO1861 (EMCH) was co-administered at 5 ml/kg in the tail vain (iv) right after the trivalent GalNAc-ApoB conjugate. Animals were weighed weekly and clinical observations were performed 2-3 times daily within the first 48 hrs, and at least once daily thereafter until study end. • ii. Sampling of serum, liver, and kidney tissue. […] At the relevant inter-study post-dose timepoints, 3 animals per timepoint per treatment group (6 animals in the vehicle control group in Study A) were sacrificed to collect terminal bleeds and collect relevant organs, such as liver and kidney tissues for further analyses. at end of study, the remaining 2 animals (4 in the control group in Study A) per group were sacrificed. One half of the liver and one kidney was frozen and used for tissue RNA analysis.
The mRNA was isolated from frozen liver tissue using TRzol® Reagent (Thermo Scientific) according to the manufacturer's instruction. Conversion into cDNA was performed using Script™ cDNA Synthesis Kit (BioRad). ApoB expression levels and levels of specific liver housekeeping genes were determined using quantitative real-time PCR assays (qRT-PCR) using iTaq™ Universal SYBRO Green Supermix (BioRad) and the Light Cycler 480 (Roche Diagnostics, Rotkreuz, Switzerland) with specific DNA primers, listed in Table A4 (Study A) and Table A7 (Study B), respectively. Analysis was done by the ΔCt method to determine apoB expression relative to 2 liver-specific housekeeping control mRNAs. Each analysis reaction was performed in triplicate.

[7] = test system: apoB protein; assay: Serum apoB protein analysis (ELISA); assay type: in vivo, C57BL/6J mice; conditions: Study B; 72 hrs; 2 mg/kg iv; vehicle 156 μg/ml
Procedure: as §3, with “Where applicable, trivalent (GalNAc)3-SO1861 (EMCH) was co-administered at 5 ml/kg in the tail vain (iv) right after the trivalent GalNAc-ApoB conjugate.” left out
ApoB protein levels in mouse serum was determined using an ApoB ELISA (ab230932, Abcam, Cambridge, UK), according to the manufacturer's instruction.

[8] = test system: LDL-cholesterol; assay: Serum LDL-cholesterol (LDL-C) analysis; assay type: in vivo, C57BL/6J mice; conditions: for serum LDL-C reduction compared to vehicle: Study A
Procedure: as §3
LDL-cholesterol was measured in mouse serum, using an LDL-cholesterol specific two-step AU480 assay kit, respectively, from Beckman Coulter, with a photometric measurement according to the manufacturer's instructions.

[9] = In vivo tolerability (clinical observations, body weight); parameters: species or system C57BL/6J mice; conditions: Study A; doses and regimens of Table A5
Procedure: as §3

[10] = test system: apoB gene expression in HepG2 cells; assay: ApoB gene silencing (gene expression analysis); assay type: cell-based, human
Procedure: as §1, §2

[11] = test system: HSP27 gene expression in HepG2 cells; assay: HSP27 gene silencing (gene expression analysis, qPCR); assay type: cell-based, human; conditions: + fixed 4000 nM SO1861-EMCH
From the text: as §1

[12] = test system: HSP27 gene expression in Huh7 cells; assay: as above; assay type: cell-based, human; conditions: + fixed 4000 nM SO1861-EMCH
From the text: as §1

[13] = + 300 nM TrivalentGalNAc-SPT001
[14] = + fixed 4000 nM trivalent-GalNAc-L-SO1861 (DAR1)

CC(=O)OC1C(C)OC(OC2C(C)OC(OC(=O)[C@]34CCC(C)(C)CC3C3=CCC5[C@@]6(C)CC[C@H](OC7OC(C(=O)O)C(O)C(OC8OCC(O)C(O)C8O)C7OC7OC(CO)C(O)C(O)C7O)[C@@](C)(C=O)C6CC[C@@]5(C)[C@]3(C)C[C@H]4O)C(OC3OC(C)C(OC4OCC(O)C(OC5OCC(O)C(O)C5O)C4O)C(OC4OCC(O)C(O)C4O)C3O)C2O)C(O)C1O (some centres unmarked) [SO1832]
endosomal escape enhancing activity towards an oligonucleotide (or protein toxin) in the endosome [1]: about equally active as SO1861

CC(=O)OC1C(C)OC(OC2C(C)OC(OC(=O)[C@]34CCC(C)(C)CC3C3=CCC5[C@@]6(C)CC[C@H](OC7OC(C(=O)O)C(O)C(OC8OCC(O)C(O)C8O)C7OC7OC(CO)C(O)C(O)C7O)[C@@](C)(/C=N/NC(=O)CCCCCN7C(=O)C=CC7=O)C6CC[C@@]5(C)[C@]3(C)C[C@H]4O)C(OC3OC(C)C(OC4OCC(O)C(OC5OC(CO)C(O)C(O)C5O)C4O)C(O)C3O)C2O)C(O)C1OC1OCC(O)C(O)C1O (some centres unmarked) [SO1861-EMCH]
increase of potency (factor) when cell viability of liver cells is considered [2]: ~10

(GalNAc)3-ApoB: trivalent GalNAc conjugated with ApoB antisense BNA oligonucleotide (SEQ ID NO: 2); linker type not stated (GCCTCAGTCTGCTTCGCACC; sugars from the 5' end [BNA]5 d10 [BNA]5, backbone and methylation of C not given here; further chemistry not fully specified)
lowering of apoB mRNA expression [3, 13]: neither TrivalentGalNAc-ApoBBNA, nor the combination of TrivalentGalNAc-ApoBBNA and TrivalentGalNAc-SPT001 induce lowering
lowering of apoB mRNA expression ([3]; alone): neither TrivalentGalNAc-ApoBBNA, nor the combination of TrivalentGalNAc-ApoBBNA and TrivalentGalNAc-SPT001 induce lowering
lowering of apoB protein expression [4, 13]: neitherTrivalentGalNAc-ApoBBNA, northe combination ofTrivalentGalNAc-ApoBBNA and TrivalentGalNAc-SPT001 induced marked lowering
lowering of apoB protein expression ([4]; alone): neitherTrivalentGalNAc-ApoBBNA, northe combination ofTrivalentGalNAc-ApoBBNA and TrivalentGalNAc-SPT001 induced marked lowering

ApoB #02 BNA: BNA^NC oligonucleotide 5′-GCattggtatTCA-3′ [SEQ ID NO: 12], fully phosphorothioated, murine and human sequence-compatible, apoB-targeting (GCATTGGTATTCA; sugars from the 5' end [BNANC]2 d8 [BNANC]3, all phosphorothioate, 5' {C6SH}, methylation of C not given here)
IC50 ([5]; relative ApoB #02 BNA concentration, no transfection agent): 400 nM
IC50 ([5]; transfection with RNAi-MAX): 8 nM
apoB RNA levels in liver, reduction compared to vehicle ([6]; 24 hrs, 0.1 mg/kg iv): not noticeably reduced
apoB RNA levels in liver, reduction compared to vehicle ([6]; 24 hrs, 1 mg/kg iv): ~15%
apoB RNA levels in liver, reduction compared to vehicle ([6]; 24 hrs, 2 mg/kg iv): ~21%
apoB RNA levels in liver, reduction compared to vehicle ([6]; 72 hrs, 2 mg/kg iv): 39%
apoB RNA levels in liver, reduction compared to vehicle ([6]; 336 hrs, 2 mg/kg iv): 30%
apoB RNA levels in liver, % of vehicle control ([6]; Study B, 72 hrs, 2 mg/kg iv): 53%
serum apoB protein level [7]: 57 µg/mL
serum LDL-C reduction compared to vehicle ([8]; 24 hrs, 0.1 mg/kg iv): not noticeably reduced
serum LDL-C reduction compared to vehicle ([8]; 24 hrs, 1 mg/kg iv): not noticeably reduced
serum LDL-C reduction compared to vehicle ([8]; 24 hrs, 2 mg/kg iv): not noticeably reduced
serum LDL-C reduction compared to vehicle ([8]; 72 hrs, 2 mg/kg iv): ~50%
serum LDL-C reduction compared to vehicle ([8]; 336 hrs, 2 mg/kg iv): ~40%
serum LDL-C level ([8]; Study B, 72 hrs, 2 mg/kg iv, vehicle 4 mg/dl): 2 mg/dL
tolerability [9]: well tolerated

trivalent-GalNAc-L-ApoBBNA: ApoBBNA (SEQ ID NO: 2) conjugated to trivalent-GalNAc, labile conjugation (GCCTCAGTCTGCTTCGCACC; sugars from the 5' end [BNA]5 d10 [BNA]5, backbone and methylation of C not given here; further chemistry not fully specified)
IC50 ([10]; + fixed 4000 nM SO1861-EMCH): 10 nM
IC50 [10, 14]: 50 nM
IC50 [3]: 700 nM

trivalent-GalNAc-L-HSP27BNA: HSP27BNA (SEQ ID NO: 1) conjugated to trivalent-GalNAc, labile conjugation (GGCACAGCCAGTGGCG; sugars from the 5' end [BNANC]3 d10 [BNANC]3, backbone and methylation of C not given here; further chemistry not fully specified)
IC50 [11]: 0.1 nM
IC50 [12]: 3 nM

trivalent-GalNAc-S-ApoBBNA: ApoBBNA (SEQ ID NO: 2) conjugated to trivalent-GalNAc, stable conjugation (GCCTCAGTCTGCTTCGCACC; sugars from the 5' end [BNA]5 d10 [BNA]5, backbone and methylation of C not given here; further chemistry not fully specified)
IC50 ([10]; + fixed 4000 nM SO1861-EMCH): 10 nM
IC50 [10, 14]: 50 nM
IC50 [3]: 700 nM

trivalent-GalNAc-S-HSP27BNA: HSP27BNA (SEQ ID NO: 1) conjugated to trivalent-GalNAc, stable conjugation (GGCACAGCCAGTGGCG; sugars from the 5' end [BNANC]3 d10 [BNANC]3, backbone and methylation of C not given here; further chemistry not fully specified)
IC50 [11]: 0.1 nM
IC50 [12]: 3 nM
